Laboratory results from ChEMBL document CHEMBL5131473, “One-pot synthesis of oxoaporphines as potent antitumor agents and investigation of their mechanisms of actions” (Eur J Med Chem, 2022).
Calls of active or inactive are those of the source. No cut-off for these calls is given here.

Columns and labels:
Format in all cases: functional, cell-based
HepG2 = assay: Antiproliferative activity against human HepG2 cells assessed as cell growth inhibition measured after 48 hrs by MTT assay; conditions: HepG2, 48 h
MGC-803 = assay: Antiproliferative activity against human MGC-803 cells assessed as cell growth inhibition measured after 48 hrs by MTT assay; conditions: MGC-803, 48 h
T-24 [1] = assay: Antiproliferative activity against human T24 cells assessed as cell growth inhibition measured after 48 hrs by MTT assay; conditions: T-24, 48 h
SK-OV-3 = assay: Antiproliferative activity against human SK-OV-3 cells assessed as cell growth inhibition measured after 48 hrs by MTT assay; conditions: SK-OV-3, 48 h
WI-38 = assay: Antiproliferative activity against human WI-38 cells assessed as cell growth inhibition measured after 48 hrs by MTT assay; conditions: WI-38, 48 h
T-24 [2] = assay: Induction of mitochondrial membrane potential dysfunction in human T24 cells assessed as mitochondrial fragment condensation at 0.5 to 1 uM by mito-tracker green dye based fluorescence microscopy; conditions: dose 0.5-1 µM

Structure (SMILES) | IC50 (HepG2) | IC50 (MGC-803) | IC50 (T-24 [1]) | IC50 (SK-OV-3) | IC50 (WI-38) | Activity (T-24 [2])
Cc1ccc2c(c1)C(=O)c1nccc3cccc-2c13 | 13.1 µM | 10 µM | 12.4 µM | 17 µM | 28.4 µM | –
O=C1c2cc3c(cc2-c2cccc4ccnc1c24)OCO3 | > 40 µM | 20.8 µM | 14.2 µM | 38.1 µM | > 40 µM | –
COc1cc2c3c(nccc3c1OC)C(=O)c1cc(O)ccc1-2 | 36.9 µM | 30.9 µM | 26.2 µM | 38.4 µM | > 40 µM | –
COc1ccc2c3c(nccc13)C(=O)c1ccccc1-2 | 12.8 µM | 7.3 µM | 6.5 µM | 10.4 µM | 20.4 µM | –
O=C1c2cc(OCc3ccccc3)ccc2-c2cccc3ccnc1c23 | > 40 µM | > 40 µM | > 40 µM | > 40 µM | > 40 µM | –
COc1cc2ccnc3c2c(c1OC)-c1ccccc1C3=O [LYSICAMINE] | > 40 µM | 15.8 µM | 7.3 µM | 12.1 µM | 6.7 µM | –
COc1ccc2c(c1)-c1cccc3ccnc(c13)C2=O | 19.6 µM | 16.6 µM | 18.9 µM | 26.1 µM | > 40 µM | –
O=C1c2cc(Cl)ccc2-c2cccc3ccnc1c23 | 15.3 µM | 26.3 µM | 34.1 µM | > 40 µM | > 40 µM | –
O=C1c2ccc(F)cc2-c2cccc3ccnc1c23 | 27.4 µM | 17.8 µM | 21.2 µM | 27.4 µM | 36.5 µM | –
Cc1ccc2c(c1)-c1cccc3ccnc(c13)C2=O | 30.1 µM | 10.6 µM | 8.6 µM | 16.7 µM | 32.4 µM | –
O=C1c2cc([N+](=O)[O-])ccc2-c2cccc3ccnc1c23 | > 40 µM | > 40 µM | > 40 µM | > 40 µM | > 40 µM | –
COc1ccc2c(c1)C(=O)c1nccc3cccc-2c13 | 7.3 µM | 14.8 µM | 20.4 µM | 19.4 µM | 28.7 µM | –
COc1cc2c(cc1OC)-c1cccc3ccnc(c13)C2=O | 35.9 µM | 10.9 µM | 22.3 µM | > 40 µM | 38.2 µM | –
COc1cc2c3c(nccc3c1OC)C(=O)c1cc(OCc3ccccc3)ccc1-2 | > 40 µM | 15.8 µM | 7.3 µM | 22.1 µM | 35.1 µM | –
COc1ccc2c3c(nccc13)C(=O)c1cc(O)ccc1-2 | 34.1 µM | > 40 µM | 12.3 µM | 32.9 µM | > 40 µM | –
O=C1c2cc(O)ccc2-c2cccc3ccnc1c23 | > 40 µM | 21.5 µM | 28.9 µM | 29.4 µM | > 40 µM | –
O=c1[nH]cc(F)c(=O)[nH]1 [FLUOROURACIL] | 20.4 µM | 39.1 µM | 39.4 µM | 21.6 µM | > 40 µM | –
COc1ccc2c3c(nccc13)C(=O)c1cc(OCc3ccccc3)ccc1-2 | 25.8 µM | 16.7 µM | 19.1 µM | 18.5 µM | 38.6 µM | –
COc1cc2c3c(nccc3c1OC)C(=O)c1ccccc1-2 | 35 µM | 9.2 µM | 18.3 µM | 27.4 µM | 29.7 µM | Active
O=C1c2c(F)cccc2-c2cccc3ccnc1c23 | 30.3 µM | 16.2 µM | 15.2 µM | 22.3 µM | > 40 µM | Active
O=C1c2ccc(Cl)cc2-c2cccc3ccnc1c23 | > 40 µM | 15.9 µM | 16.8 µM | 27.2 µM | > 40 µM | –
